Counter-ions that a name gives are not always drawn.
Legend:
[1] = cited from earlier work
[2] = tested on: Fibroblast cells; experiment: Cytotoxicity test, Alamar Blue reduction; type: cell-based; settings: fibroblasts, 24 hours, relative to control cells
Procedure: Fibroblast cells (14th passage) were thawed and cultured in […] flasks with culture medium at 37° C., humidified atmosphere and 5% CO2. The cells were cultured with modified Eagle's medium supplemented with 10% fetal bovine serum, 1% L-glutamine and 0.1% penicillin-streptomycin-nystatin. At confluence of 70% (at passages 16-19) the cells were separated using incubation for 3 minutes with 1 ml trypsin A, the free cells were added to the culture medium and seeded in a 6 well plate.
When confluence of 70% was reached the medium was replaced by 2 ml of medium containing 10% v/v Alamar blue for 4 hours of incubation. Thereafter, two 100 μL samples were taken from each well and inserted to a 96 well plate. The plate was inserted for analysis at a spectrophotometer (Spectra max 340 PC384, Molecular Devices) at 570 and 600 nm.
Two experiments were carried out, at first each component of the bioadhesive were inserted separately to a test tube containing 4 ml medium and incubated for 24 hours and then that medium was added to the cells instead of the medium containing Alamar Blue. In the second experiment, the medium with Alamar Blue was replaced with 4 ml of fresh medium and 0.1 ml of bioadhesive was added to the medium and incubated for 24 hours followed by another reading using Alamar Blue.
The reduction of Alamar Blue's absorption was calculated using the manufacturer's protocol, namely Alamar Blue reduction=(ε600A^t570−ε570A^t600)/(ε570A^c600−ε600A^c570), wherein ε570 and ε600 are the molar extinction coefficients of oxidized Alamar Blue at 570 nm and 600 nm respectively, A^t and Ac are the absorbance of test and control respectively at 570 nm and 600 nm respectively, whereas the control is taken as the medium with Alamar blue but without any cells.

## CCCCN1CCCCC1C(=O)Nc1c(C)cccc1C (centres unmarked) [bupivacaine, Bupivacaine hydrochloride]
[1]
  isoelectric points (pKa): 8.1-8.4
[2]; aqueous drug solution 2% w/v
  cell viability: 67.6%
[2]; aqueous drug solution 3% w/v
  cell viability: 58.8%

## CC(C)Cc1ccc(C(C)C(=O)[O-])cc1.[Na+] (centres unmarked) [ibuprofen, Ibuprofen sodium salt]
[2]; aqueous drug solution 2% w/v
  cell viability: 93.5%
[2]; aqueous drug solution 3% w/v
  cell viability: 79.7%

From patent publication US10265274B2, “Formulations and kits for forming bioadhesive matrices” (Technology Innovation Momentum Fund (Israel) Limited …, priority 2012, dated 2019)
